Columns and labels:
[1] = system: Rattus norvegicus; assay: Antialzheimer activity in rat assessed as reduction in amyloid beta42 level in CSF at 3 mg/kg, po after 3 hrs; type: functional; design: scale not given: the % may be the effect or the level left
[2] = Volume of distribution at steady state in dog at 3 mg/kg, iv; type: ADME, organism-based, Canis lupus familiaris; design: dose 3 mg/kg, route intravenous; details: in vivo, read-out: Vdss
[3] = Half life in dog at 3 mg/kg, iv; type: ADME, organism-based, Canis lupus familiaris; design: dose 3 mg/kg, route intravenous; details: in vivo
[4] = Permeability from apical to basolateral side of human Caco2 cells; type: ADME, cell-based; details: Caco-2, read-out: permeability
[5] = system: Rattus norvegicus; assay: Oral bioavailability in rat at 10 mg/kg; type: ADME, organism-based; details: in vivo
[6] = Cmax in dog at 10 mg/kg, po; type: ADME, organism-based, Canis lupus familiaris; design: dose 10 mg/kg, route oral; details: in vivo
[7] = Half life in monkey at 3 mg/kg, iv; type: ADME, organism-based, Macaca mulatta; design: dose 3 mg/kg, route intravenous; details: rhesus monkey, in vivo
[8] = Clearance in monkey at 3 mg/kg, iv; type: ADME, organism-based, Macaca mulatta; design: dose 3 mg/kg, route intravenous; details: rhesus monkey, in vivo
[9] = Half life in rat at 3 mg/kg, iv; type: ADME, organism-based; design: dose 3 mg/kg, route intravenous; details: in vivo
[10] = Oral bioavailability in monkey at 10 mg/kg; type: ADME, organism-based, Macaca mulatta; details: rhesus monkey, in vivo
[11] = system: Rattus norvegicus; assay: AUC in rat at 10 mg/kg, po; type: ADME, organism-based, Plasma; design: dose 10 mg/kg, route oral; details: in vivo
[12] = target: Cytochrome P450 3A4 (Homo sapiens, UniProt P08684); assay: Inhibition of human CYP3A4; type: ADME
[13] = target: Gamma-secretase (Homo sapiens) (UniProt Q96BI3+Q9NZ42+Q8WW43+P49768+Q92542+P49810); assay: Modulation of gamma-secretase-mediated cleavage of human APP Swedish and London mutation expressed in HEK293 cells assessed as reduction of total amyloid beta/amyloid beta42 ratio after 5 hrs by sandwich immunoassay; type: cell-based
[14] = target: Gamma-secretase; assay: Modulation of gamma-secretase-mediated cleavage of human APP Swedish and London mutation expressed in HEK293 cells assessed as reduction of total amyloid beta level after 5 hrs by sandwich immunoassay; type: cell-based
[15] = organism: Homo sapiens; assay: Cardiotoxicity in human assessed as QT prolongation; type: toxicity, organism-based; details: in vivo
[16] = Efflux ratio of permeability from basolateral to apical side over apical to basolateral side in human Caco2 cells; type: ADME, cell-based; details: Caco-2
[17] = organism: Canis familiaris; assay: Cardiotoxicity in dog assessed as effect on electrocardiographic QTc interval at compound concentration required for pharmacological effect; type: toxicity, organism-based, Canis lupus familiaris; details: in vivo
[18] = Drug level in rat brain at 3 mg/kg, po after 3 hrs; type: ADME, organism-based; design: dose 3 mg/kg, route oral; details: read-out: Drug uptake
[19] = target: Cytochrome P450 2D6 (Homo sapiens, UniProt P10635); assay: Inhibition of human CYP2D6; type: ADME
[20] = target: T1, Nuclear receptor subfamily 1 group I member 2 (Homo sapiens, UniProt O75469); assay: Induction of human PXR
T1 sequence (O75469 whole entry): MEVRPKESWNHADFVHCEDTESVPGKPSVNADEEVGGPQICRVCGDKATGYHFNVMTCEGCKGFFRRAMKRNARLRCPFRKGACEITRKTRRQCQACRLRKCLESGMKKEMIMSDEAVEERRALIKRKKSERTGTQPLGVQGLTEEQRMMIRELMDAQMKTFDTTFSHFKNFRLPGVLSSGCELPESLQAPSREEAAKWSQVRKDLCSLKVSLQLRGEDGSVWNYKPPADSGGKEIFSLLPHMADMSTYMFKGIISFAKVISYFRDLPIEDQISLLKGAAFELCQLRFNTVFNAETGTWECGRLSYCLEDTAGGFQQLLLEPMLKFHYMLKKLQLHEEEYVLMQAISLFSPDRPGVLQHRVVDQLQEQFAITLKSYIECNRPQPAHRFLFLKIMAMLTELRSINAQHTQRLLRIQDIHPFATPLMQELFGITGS

[21] = target: Gamma-secretase; assay: Modulation of gamma-secretase-mediated cleavage of human APP Swedish and London mutation expressed in HEK293 cells assessed as inhibition of amyloid beta40 production after 5 hrs by sandwich immunoassay; type: cell-based
[22] = Volume of distribution at steady state in monkey at 3 mg/kg, iv; type: ADME, organism-based, Macaca mulatta; design: dose 3 mg/kg, route intravenous; details: rhesus monkey, in vivo, read-out: Vdss
[23] = target: Cytochrome P450 2C9 (Homo sapiens, UniProt P11712); assay: Inhibition of human CYP2C9; type: ADME
[24] = target: Gamma-secretase; assay: Modulation of gamma-secretase-mediated cleavage of human APP Swedish and London mutation expressed in HEK293 cells assessed as inhibition of amyloid beta42 production after 5 hrs by sandwich immunoassay; type: cell-based
[25] = Dissociation constant, pKa of the compound; type: physicochemical
[26] = Drug level in rat brain at 10 mg/kg, po after 3 hrs; type: ADME, organism-based; design: dose 10 mg/kg, route oral; details: read-out: Drug uptake
[27] = target: Voltage-gated inwardly rectifying potassium channel KCNH2 (Homo sapiens, UniProt Q12809); assay: Inhibition of human ERG by cell based voltage clamp assay
[28] = AUC in monkey at 10 mg/kg, po; type: ADME, organism-based, Macaca mulatta; design: dose 10 mg/kg, route oral; details: rhesus monkey, plasma
[29] = Cmax in monkey at 10 mg/kg, po; type: ADME, organism-based, Macaca mulatta; design: dose 10 mg/kg, route oral; details: rhesus monkey, in vivo
[30] = Volume of distribution at steady state in rat at 3 mg/kg, iv; type: ADME, organism-based; design: dose 3 mg/kg, route intravenous; details: in vivo, read-out: Vdss
[31] = system: Rattus norvegicus; assay: Antialzheimer activity in rat assessed as reduction in amyloid beta42 level in CSF at 10 mg/kg, po after 3 hrs; type: functional; design: scale not given: the % may be the effect or the level left
[32] = system: Canis familiaris; assay: AUC in dog at 10 mg/kg, po; type: ADME, organism-based, Canis lupus familiaris, Plasma; design: dose 10 mg/kg, route oral; details: in vivo
[33] = system: Rattus norvegicus; assay: Antialzheimer activity in po dosed rat assessed as reduction in amyloid beta42 level in CSF after 3 hrs; type: functional, organism-based
[34] = system: Canis familiaris; assay: Oral bioavailability in dog at 10 mg/kg; type: ADME, organism-based, Canis lupus familiaris; details: in vivo
[35] = Cmax in rat at 10 mg/kg, po; type: ADME, organism-based; design: dose 10 mg/kg, route oral; details: in vivo

Sequence of Cytochrome P450 2C9 (P11712 whole entry): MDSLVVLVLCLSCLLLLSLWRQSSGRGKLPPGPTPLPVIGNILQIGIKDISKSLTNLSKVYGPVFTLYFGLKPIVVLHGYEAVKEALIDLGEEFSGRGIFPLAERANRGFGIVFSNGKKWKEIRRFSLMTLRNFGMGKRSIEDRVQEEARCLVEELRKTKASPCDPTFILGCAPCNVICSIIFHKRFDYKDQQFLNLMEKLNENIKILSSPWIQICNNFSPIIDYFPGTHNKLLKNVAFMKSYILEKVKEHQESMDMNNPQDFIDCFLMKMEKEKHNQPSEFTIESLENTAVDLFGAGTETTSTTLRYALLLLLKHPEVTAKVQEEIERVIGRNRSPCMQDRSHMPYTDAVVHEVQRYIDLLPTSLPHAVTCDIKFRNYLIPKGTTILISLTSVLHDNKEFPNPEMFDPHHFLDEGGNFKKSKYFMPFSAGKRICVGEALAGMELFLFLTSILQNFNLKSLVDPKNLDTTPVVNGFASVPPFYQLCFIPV
Sequence of Cytochrome P450 2D6 (P10635 whole entry): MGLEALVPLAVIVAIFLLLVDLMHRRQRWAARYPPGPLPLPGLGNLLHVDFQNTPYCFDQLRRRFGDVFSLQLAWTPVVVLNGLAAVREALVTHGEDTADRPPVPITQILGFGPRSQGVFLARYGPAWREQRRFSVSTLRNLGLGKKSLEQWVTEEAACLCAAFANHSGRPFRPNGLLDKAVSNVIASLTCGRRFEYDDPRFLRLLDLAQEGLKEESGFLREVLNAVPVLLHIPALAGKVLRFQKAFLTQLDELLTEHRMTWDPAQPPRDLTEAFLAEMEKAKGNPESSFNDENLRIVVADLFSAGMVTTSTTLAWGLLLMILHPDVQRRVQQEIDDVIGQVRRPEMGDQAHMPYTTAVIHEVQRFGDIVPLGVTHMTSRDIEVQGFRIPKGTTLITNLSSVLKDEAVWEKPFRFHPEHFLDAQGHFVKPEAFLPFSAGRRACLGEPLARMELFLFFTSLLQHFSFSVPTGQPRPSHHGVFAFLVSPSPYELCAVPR
Sequence of Cytochrome P450 3A4 (P08684 whole entry): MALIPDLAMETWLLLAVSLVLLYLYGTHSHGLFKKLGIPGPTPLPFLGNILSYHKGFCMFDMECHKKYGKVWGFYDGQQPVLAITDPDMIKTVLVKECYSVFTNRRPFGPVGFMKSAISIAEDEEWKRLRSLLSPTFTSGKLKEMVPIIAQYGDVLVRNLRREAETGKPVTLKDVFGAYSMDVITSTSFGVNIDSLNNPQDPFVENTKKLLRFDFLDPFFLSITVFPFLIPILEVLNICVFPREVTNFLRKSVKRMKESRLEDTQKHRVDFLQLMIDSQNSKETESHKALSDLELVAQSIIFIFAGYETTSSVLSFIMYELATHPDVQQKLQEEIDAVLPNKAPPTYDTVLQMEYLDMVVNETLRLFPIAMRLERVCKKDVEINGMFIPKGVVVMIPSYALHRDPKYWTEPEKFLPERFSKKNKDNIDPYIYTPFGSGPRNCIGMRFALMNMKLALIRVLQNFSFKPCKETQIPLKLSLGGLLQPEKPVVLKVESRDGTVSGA
Sequence of Voltage-gated inwardly rectifying potassium channel KCNH2 (Q12809 whole entry): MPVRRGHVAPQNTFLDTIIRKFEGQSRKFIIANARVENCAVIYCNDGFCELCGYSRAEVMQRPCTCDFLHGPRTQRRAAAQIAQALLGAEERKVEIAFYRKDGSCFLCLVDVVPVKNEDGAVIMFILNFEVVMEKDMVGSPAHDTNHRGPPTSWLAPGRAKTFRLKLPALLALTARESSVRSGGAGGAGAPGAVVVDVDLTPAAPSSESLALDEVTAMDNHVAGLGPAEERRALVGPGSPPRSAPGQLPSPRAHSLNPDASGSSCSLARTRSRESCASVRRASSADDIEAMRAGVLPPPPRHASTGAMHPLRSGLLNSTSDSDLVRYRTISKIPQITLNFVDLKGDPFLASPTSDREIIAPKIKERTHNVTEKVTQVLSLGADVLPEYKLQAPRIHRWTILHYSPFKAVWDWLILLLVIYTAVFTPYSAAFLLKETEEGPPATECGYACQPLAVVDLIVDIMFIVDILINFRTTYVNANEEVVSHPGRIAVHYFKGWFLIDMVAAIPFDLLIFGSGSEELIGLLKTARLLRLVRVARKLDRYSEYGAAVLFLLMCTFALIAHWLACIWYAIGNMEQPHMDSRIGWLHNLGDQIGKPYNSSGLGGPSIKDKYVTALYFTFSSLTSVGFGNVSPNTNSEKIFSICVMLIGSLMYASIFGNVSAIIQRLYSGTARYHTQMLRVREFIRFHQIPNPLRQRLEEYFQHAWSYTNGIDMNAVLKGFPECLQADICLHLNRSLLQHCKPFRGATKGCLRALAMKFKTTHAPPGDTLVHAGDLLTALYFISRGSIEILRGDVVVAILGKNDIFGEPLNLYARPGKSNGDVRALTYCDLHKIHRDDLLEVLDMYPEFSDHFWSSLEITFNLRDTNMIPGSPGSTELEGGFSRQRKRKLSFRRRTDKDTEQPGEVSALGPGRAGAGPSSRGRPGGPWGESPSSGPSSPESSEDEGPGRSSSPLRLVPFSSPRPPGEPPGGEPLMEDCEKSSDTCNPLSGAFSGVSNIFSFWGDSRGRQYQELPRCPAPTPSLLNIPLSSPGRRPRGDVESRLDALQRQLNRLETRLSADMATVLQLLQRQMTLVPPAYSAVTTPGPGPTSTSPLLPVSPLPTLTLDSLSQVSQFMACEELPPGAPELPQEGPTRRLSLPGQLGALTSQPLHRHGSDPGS

COc1cc(/C=C2\CCCN3C2=NOC3(C)c2ccc(F)cc2)ccc1-n1cnc(C)c1 (single isomer, unassigned)
Activity [1]: 30% | Vd [2]: 2.2 L/kg | half-life [3]: 1.7 h | Papp A→B [4]: 34.6 ×10⁻⁶ cm/s | F [5]: 78% | Cmax [6]: 5.3 µM | half-life [7]: 2 h | clearance [8]: 7.3 mL/min/kg | half-life [9]: 2.5 h | bioavailability [10]: 57% | AUC [11]: 19 µM·h | inhibition (INH) [12]: Not Active | Ratio IC50 [13]: 237 | IC50 [14]: 13700 nM | Activity [15]: Toxic | efflux ratio [16]: 0.6 | Activity [17]: Non-toxic | concentration at 3 h [18]: 0.8 µM | inhibition (INH) [19]: Not Active | Activity [20]: Not Active | IC50 [21]: 267 nM | Vd [22]: 1 L/kg | inhibition (INH) [23]: Not Active | IC50 [24]: 58 nM | pKa [25]: 6.7 | concentration at 3 h [26]: 5 µM | IC50 [27]: 740 nM | AUC [28]: 30 µM·h | Cmax [29]: 5.6 µM | Vd [30]: 1.6 L/kg | Activity [31]: 51% | AUC [32]: 27 µM·h | Activity [33]: Dose-dependent effect | F [34]: 69% | Cmax [35]: 4.9 µM

— ChEMBL document CHEMBL1949526, “Cyclic hydroxyamidines as amide isosteres: discovery of oxadiazolines and oxadiazines as potent and highly efficacious γ-secretase modulators in vivo” (J Med Chem, 2012)
